Experimental data reported in PubChem BioAssay (NCI).
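Briefly, cells in 96-well plates were exposed to five compound concentrations for 48 h, and endpoints were estimated by linear interpolation. The concentration for 50% growth inhibition is given as GI50. TGI marks complete inhibition of growth.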

What was measured:
Assay in all cases: inhibition of tumour cell growth, NCI panel, 48 h
NCI-H23 lung = tested on: NCI-H23 lung
HL-60(TB) leukemia = tested on: HL-60(TB) leukemia
ACHN renal = tested on: ACHN renal
SF-268 CNS = tested on: SF-268 CNS
LOX IMVI melanoma = tested on: LOX IMVI melanoma
A549 NSCLC = tested on: A549 NSCLC
SK-MEL-28 melanoma = tested on: SK-MEL-28 melanoma
RXF 393 renal = tested on: RXF 393 renal
TK-10 renal = tested on: TK-10 renal
DU-145 prostate = tested on: DU-145 prostate

| SMILES | TGI (NCI-H23 lung) | TGI (HL-60(TB) leukemia) | TGI (ACHN renal) | TGI (SF-268 CNS) | TGI (LOX IMVI melanoma) | TGI (A549 NSCLC) | TGI (SK-MEL-28 melanoma) | TGI (RXF 393 renal) | TGI (TK-10 renal) | TGI (DU-145 prostate) | GI50 (HL-60(TB) leukemia) |
| --- | --- | --- | --- | --- | --- | --- | --- | --- | --- | --- | --- |
| COC(=O)c1sc2c(c1C(=O)OC)C(=Nc1ccc(OC)cc1)SC2=Nc1ccc(OC)cc1 | 3.12 µM | 0.552 µM | 2.51 µM | 3.61 µM | 0.449 µM | 2.68 µM | 2.85 µM | 1.72 µM | 3.01 µM | 1.69 µM |  |
| Cc1ccc([N+](=O)[O-])cc1S(=O)(=O)Nc1ccc(C2=NN(S(=O)(=O)c3cc([N+](=O)[O-])ccc3C)C(c3ccccc3O)C2)cc1 (stereo unspecified) | > 100 µM | > 100 µM | > 100 µM | > 100 µM | > 100 µM | > 100 µM | > 100 µM | > 100 µM | > 100 µM | > 100 µM |  |
| C=CCSC1=N/C(=C\c2ccc(C)cc2)C(=O)N1CC=C | > 100 µM | 28.1 µM | > 100 µM | > 100 µM | 82.3 µM | 65.4 µM | > 100 µM | 43.2 µM | > 100 µM | > 100 µM |  |
| CN(CCNC(=O)c1nn(C)c2c1Cc1ccccc1-2)CCNC(=O)c1nn(C)c2c1Cc1ccccc1-2 | 32.3 µM | 29 µM | 28.4 µM | 29.4 µM | 34.8 µM | 33.3 µM | 30.9 µM | 29.5 µM | 29.6 µM | 41.5 µM |  |
| Cc1c(CCCl)c(Cl)n2c(nc3ccccc32)c1C#N | 2.37 µM | 0.627 µM | 2.14 µM | 11.5 µM | 0.878 µM | > 100 µM | 4.97 µM | 3 µM | 3.84 µM | 4.56 µM |  |
| COc1cc2c(cc1C)NC(=O)/C2=C/c1c(Cl)[nH]c2ccccc12 | 23.7 µM | 7.37 µM | 22.4 µM | 17.7 µM | 17.9 µM | > 100 µM | 20.8 µM | 24.7 µM | 22.1 µM | 27 µM |  |
| NS(=O)(=O)c1ccc(Nc2c3ccccc3nc3c(C(=O)NC(CO)(CO)CO)cccc23)cc1 | 0.318 µM | 0.642 µM | 0.508 µM | 0.486 µM | 0.286 µM | 0.314 µM | 0.576 µM | 0.386 µM | 0.311 µM | 0.812 µM |  |
| CNC(=O)OC1/C(C)=C\C(C)C(O)C(OC)CC(C)CC2=C(OC)C(=O)C=C(C2=O)N(C)C(=O)/C(C)=C/C=C\C1OC (stereo unspecified) | 15 µM | 14.1 µM | 20.9 µM | 26.1 µM | 16.6 µM | 43.7 µM | 19.2 µM | 17.9 µM | 22 µM | > 41.8 µM | 918 nM |
| C=CCN(C(C)=O)c1cc(OCc2ccccc2)c2c(c1)c(C)cn2S(=O)(=O)c1ccccc1 | > 100 µM | > 100 µM | 51.4 µM | > 100 µM | 50.1 µM | > 100 µM | > 100 µM | > 100 µM | > 100 µM | > 100 µM |  |
| CCOC(=O)c1c(N2CCN(C)CC2)[nH]c(=O)c(C(c2c(Cl)cccc2Cl)c2c(O)c(C(=O)OCC)c(N3CCN(C)CC3)[nH]c2=O)c1O | > 100 µM | 58.2 µM | 42.8 µM | 56.5 µM | > 100 µM | 71.4 µM | 34.1 µM | 38.8 µM | 55.4 µM | 38.3 µM |  |
| O=C1N[C@@H]([C@H]2CC[C@H](Cl)CN2)C(=O)N[C@H]1[C@H]1CC[C@H](Cl)CN1 | 8.76 µM | 0.426 µM | 1.5 µM | 51.5 µM | 2.6 µM | 76.5 µM | 31.1 µM | 12.2 µM | 36.6 µM | 23.8 µM |  |
| C/C(=C\COP(=O)(O)OP(=O)(O)O)CC/C=C(\C)CNc1c(F)c(F)c(F)c(F)c1F | > 100 µM | > 100 µM | > 100 µM | > 100 µM | > 100 µM | > 100 µM | > 100 µM | > 100 µM | > 100 µM | > 100 µM |  |
| CCOC(=O)c1cccc(N=NNc2cccc(C(=O)OCC)c2)c1 | > 100 µM | > 100 µM | > 100 µM | 80.8 µM | > 100 µM | > 100 µM | > 100 µM | 62.9 µM | > 100 µM | > 100 µM |  |
| COc1cc2c(c(O)c1OC)C(O)C1CCC(=O)N1C2c1ccc2c(c1)OCO2 (stereo unspecified) | > 100 µM | > 100 µM | > 100 µM | > 100 µM | > 100 µM | > 100 µM | > 100 µM | > 100 µM | > 100 µM | > 100 µM |  |
| O=[N+]([O-])C(/C=C(\Cl)[N+](=O)[O-])=C(N1CCOCC1)N1CCOCC1 | > 100 µM | 36.8 µM | > 100 µM | > 100 µM | > 100 µM | 39.3 µM | > 100 µM | > 100 µM | > 100 µM | > 100 µM |  |
| O=C1CC2(CCN(Cc3ccccc3)CC2)C(=O)N1N1CCCCC1 | > 100 µM | > 100 µM | > 100 µM | > 100 µM | > 100 µM | > 100 µM | > 100 µM | > 100 µM | > 100 µM | > 100 µM |  |
| CC(C)C(Sc1nc(N)nc2nc[nH]c12)C(=O)O (stereo unspecified) | > 100 µM | > 100 µM | > 100 µM | > 100 µM | > 100 µM | > 100 µM | > 100 µM | > 100 µM | > 100 µM | > 100 µM |  |
| NC1=Nc2ncccc2C(=O)NN1 | > 10 µM | > 10 µM | > 10 µM | > 10 µM | > 10 µM | > 10 µM | > 10 µM | > 10 µM | > 10 µM | > 10 µM |  |
